In US20170112896A1, “SMALL MOLECULE RAC OR RHO INHIBITORS” (Ohio State Innovation Foundation, priority 2014, published 2017):
Read-outs that look alike come from different tables or passages of the source. Square brackets hold non-standard residues; d marks the D form. Side chains are listed from the residue outwards. Peptide text beside a SMILES is read from it. * marks the point of attachment. Phe(3,4-F2) = N[C@@H](Cc1ccc(F)c(F)c1)C(=O)O; Phe(4-F) = N[C@@H](Cc1ccc(F)cc1)C(=O)O; 2Nal = N[C@@H](Cc1ccc2ccccc2c1)C(=O)O; d2Nal = N[C@H](Cc1ccc2ccccc2c1)C(=O)O; Tle = CC(C)(C)[C@H](N)C(=O)O; dNle = CCCC[C@@H](N)C(=O)O; Nle = CCCC[C@H](N)C(=O)O; X4 = O=C(c1ccc(Cl)nc1)*; Dap = NC[C@H](N)C(=O)O

Legend:
[1] = target: T1, Ras(G12V)-Raf RBD interaction (Homo sapiens, UniProt P01116, G12V); test: HTRF assay, inhibition of Ras-Raf RBD interaction; assay type: binding; conditions: read-out: HTRF IC50
T1 construct: The G12V mutant K-Ras (amino acids 1-185) was recombinantly fused to glutathione 5-transferase (GST) at its N-terminus; GST (N, cleaved yes); made in house; host or cells: Escherichia coli BL21
T1 sequence (P01116 1-185 isoform P01116-2 G12V): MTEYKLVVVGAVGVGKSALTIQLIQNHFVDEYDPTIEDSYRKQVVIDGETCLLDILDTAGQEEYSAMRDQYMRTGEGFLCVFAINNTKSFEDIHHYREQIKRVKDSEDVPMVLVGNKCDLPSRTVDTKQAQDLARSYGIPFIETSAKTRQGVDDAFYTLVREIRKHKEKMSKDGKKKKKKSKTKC
Description: Recombinant HA-tagged K-Ras (no GST, 50 nM), GST-Raf RBD (50 nM each), a monoclonal anti-HA antibody labeled with acceptor d2 (2 μg/mL), a monoclonal anti-GST antibody labeled with donor Tb (0.25 μg/mL) (Cisbio), and increasing concentrations of cyclic peptide (0-20 μM) were mixed in PBS (total volume of 20 μL) in a 384-well plate. The plate was incubated overnight at 4° C. and the HTRF signal was measured on a Molecular Devices Spectramax M5 or a Tecan infinite M1000 Pro plate reader. The data were analyzed by Prism 6.0 from Graphpad Software, Inc. (La Jolla, Calif.) and IC50 values were obtained by fitting the data to dose-response-inhibition curve.

[2] = system: H1299 lung cancer cells; assay type: cell-based; conditions: for IC50: 72 h
Description: MTT assays (Mosmann, T. (1983) J. Immunol. Methods 65:55) were performed with H1299 lung cancer cells. One hundred μL of H1299 cells (0.5×10^5 cells/mL) were seeded in each well of a 96-well culture plate and allowed to grow overnight in Advanced RPMI medium supplemented with 10% fetal bovine serum (FBS) and 1% penicillin-streptomycin. Varying concentrations of cyclic peptide (0-25 μM) were added to the each well and the cells were incubated at 37° C. with 5% CO2 for 72 hours. Ten μL of a MTT stock solution (Roche) was added into each well. The plate was incubated at 37° C. for 4 h. Then 100 μL of SDS-HCl solubilizing buffer was added into each well, and the resulting solution was mixed thoroughly. The plate was incubated at 37° C. overnight. The absorbance of the formazan product was measured at 570 nm using a Molecular Devices Spectramax M5 plate reader. Each experiment was performed in triplicates and the cells without any peptide added were treated as control.

[3] = inhibition of Ras-Raf interaction, unlabeled peptide

IC50 [2] [µM]	Structure (SMILES)	IC50 [1, 3] [µM]	also measured
–	CCCC[C@H](NC(=O)CC[C@@H]1NC(=O)[C@@H](C)NC(=O)[C@H]([C@@H](C)O)NC(=O)[C@H](Cc2c[nH]c3ccccc23)NC(=O)[C@H](CCC(N)=O)NC(=O)[C@@H](CCCC)NC(=O)[C@H](Cc2ccc(F)cc2)NC(=O)[C@H](CCCNC(=N)N)NC(=O)[C@@H](Cc2ccc3ccccc3c2)NC(=O)[C@H](CCCNC(=N)N)NC(=O)[C@H](CCCNC(=N)N)NC1=O)C(N)=O [Cyclorasin 9A4] (cyclo(RR[d2Nal]R[Phe(4-F)][dNle]QWT[dA]E([Nle-NH2])))	0.5 ± 0.1	–
–	CCCC[C@H]1NC(=O)[C@H](Cc2ccc(O)cc2)NC(=O)[C@H](CCCNC(=N)N)NC(=O)[C@@H](Cc2ccc3ccccc3c2)NC(=O)[C@H](CCCNC(=N)N)NC(=O)[C@H](CCCNC(=N)N)NC(=O)[C@@H](CCCNC(=N)N)NC(=O)[C@@H](C)NC(=O)[C@H]([C@@H](C)O)NC(=O)[C@H](Cc2c[nH]c3ccccc23)NC(=O)[C@H](CCC(N)=O)NC1=O [Cyclorasin 9A13] (cyclo(QWT[dA][dR]RR[d2Nal]RY[dNle]))	> 20	–
–	CCCC[C@H]1NC(=O)[C@H](CNC(=O)c2ccc(Cl)nc2)NC(=O)[C@H](CCCNC(=N)N)NC(=O)[C@@H](Cc2ccc3ccccc3c2)NC(=O)[C@H](CCCNC(=N)N)NC(=O)[C@H](CCCNC(=N)N)NC(=O)[C@H](CCCNC(=N)N)NC(=O)[C@@H](C)NC(=O)[C@H](C(C)(C)C)NC(=O)[C@H](Cc2c[nH]c3ccccc23)NC(=O)[C@H](CCC(N)=O)NC1=O [Cyclorasin 9A44b] (cyclo(W[Tle][dA]RRR[d2Nal]R[Dap](X4)[dNle]Q))	–	IC50 [1]: 0.52 ± 0.16 µM
–	CC(C)[C@H]1NC(=O)[C@H](C(C)(C)C)NC(=O)[C@H](Cc2c[nH]c3ccccc23)NC(=O)[C@H](CCC(N)=O)NC(=O)[C@@H](CCCNC(=N)N)NC(=O)[C@H](Cc2ccc(F)c(F)c2)NC(=O)[C@H](CCCNC(=N)N)NC(=O)[C@@H](Cc2ccc3ccccc3c2)NC(=O)[C@H](CCCNC(=N)N)NC(=O)[C@H](CCCNC(=N)N)NC(=O)[C@H](CCCNC(=N)N)NC1=O [Cyclorasin 9A50] (cyclo([Phe(3,4-F2)][dR]QW[Tle][dV]RRR[d2Nal]R))	> 1	–
–	C[C@H]1NC(=O)[C@H]([C@@H](C)O)NC(=O)[C@H](Cc2c[nH]c3ccccc23)NC(=O)[C@H](CCC(N)=O)NC(=O)[C@@H](CCCNC(=N)N)NC(=O)[C@H](Cc2ccc(F)c(F)c2)NC(=O)[C@H](CCCNC(=N)N)NC(=O)[C@@H](Cc2ccc3ccccc3c2)NC(=O)[C@H](CCCNC(=N)N)NC(=O)[C@H](CCCNC(=N)N)NC(=O)[C@H](CCCNC(=N)N)NC1=O [Cyclorasin 9A52] (cyclo([Phe(3,4-F2)][dR]QWT[dA]RRR[d2Nal]R))	> 1	–
13 ± 1	CCCC[C@H]1NC(=O)[C@H](Cc2ccc(F)cc2)NC(=O)[C@H](CCCNC(=N)N)NC(=O)[C@@H](Cc2ccc3ccccc3c2)NC(=O)[C@H](CCCNC(=N)N)NC(=O)[C@H](CCCNC(=N)N)NC(=O)[C@@H](CCCNC(=N)N)NC(=O)[C@@H](C(C)C)NC(=O)[C@H](C(C)(C)C)NC(=O)[C@H](Cc2c[nH]c3ccccc23)NC(=O)[C@H](CCC(N)=O)NC1=O [Cyclorasin 9A53] (cyclo(W[Tle][dV][dR]RR[d2Nal]R[Phe(4-F)][dNle]Q))	–	–
7.2 ± 0.4	CCCC[C@H]1NC(=O)[C@H](Cc2ccc(F)c(F)c2)NC(=O)[C@H](CCCNC(=N)N)NC(=O)[C@@H](Cc2ccc3ccccc3c2)NC(=O)[C@H](CCCNC(=N)N)NC(=O)[C@H](CCCNC(=N)N)NC(=O)[C@H](CCCNC(=N)N)NC(=O)[C@@H](C(C)C)NC(=O)[C@H](C(C)(C)C)NC(=O)[C@H](Cc2c[nH]c3ccccc23)NC(=O)[C@H](CCC(N)=O)NC1=O [Cyclorasin 9A54] (cyclo(W[Tle][dV]RRR[d2Nal]R[Phe(3,4-F2)][dNle]Q))	–	anti-proliferative activity against lung cancer cells (in words) ([2]; MTT assay): less effective
12 ± 1	CCCC[C@H]1NC(=O)[C@H](Cc2ccc(F)cc2)NC(=O)[C@H](CCCNC(=N)N)NC(=O)[C@H](Cc2ccc3ccccc3c2)NC(=O)[C@H](CCCNC(=N)N)NC(=O)[C@H](CCCNC(=N)N)NC(=O)[C@H](CCCNC(=N)N)NC(=O)[C@@H](C)NC(=O)[C@H]([C@@H](C)O)NC(=O)[C@H](Cc2c[nH]c3ccccc23)NC(=O)[C@H](CCC(N)=O)NC1=O [Cyclorasin 9A55] (cyclo(WT[dA]RRR[2Nal]R[Phe(4-F)][dNle]Q))	–	–
